Results: patent publication US5721366A, “Platelet aggregation inhibitors” (G. D. Searle & Co, priority 1995, dated 1998)
Where a name gives a salt, the structure may show the parent alone.

Experiments:
[1] = system: Human platelet aggregation (platelet-rich plasma); test: Inhibition of Human Platelet Aggregation (PRP), collagen-induced; format: cell-based; conditions: Homo sapiens, Platelet, collagen-induced aggregation (4 μg/ml final), 37° C.
Method: Inhibition of Human Platelet Aggregation (PRP)
Platelet rich plasma was prepared from citrated whole blood (3.8% Na citrate, 1:10 in 30 ml blood) withdrawn from the antecubital vein (n=1). PRP was prepared by centrifugation (Sorvall RC3C, DuPont, Wilmington, Del.) of the whole blood at 1000×g for 3 min, allowing the centrifuge to stop without braking. Platelet poor plasma (PPP) was prepared by centrifugation of PRP at 2000×g for 10 min. […] Aggregation was measured in a 4 channel aggregometer (model PAP-4C, Bio/Data Corp., Hatboro, Pa.). Aliquots of PPP were used to standardize the aggregometer for measurement of maximum light transmission. Platelet aggregation was measured as an increase in light transmission.
PRP (430 μl aliquot) was preincubated with 50 μl of various concentrations of compound (dissolved in 10% ETOH/water at a concentration of 10^-3 M. Compounds were diluted to desired concentration with 0.9% NaCl) for 2 min at 37° C., with stirring at 900 rpm, in the aggregometer. The stock collagen (Chronolog, Havertown, Pa., equine tendon) was diluted 1:10 with a 5% dextrose and water solution. The vehicle control response was obtained by adding 20 μl diluted collagen to the untreated aliquot of PRP+50 μl saline. Final collagen concentration was 4 μg/ml. Aggregation was recorded for 3 min following the addition of collagen. […] Percent inhibition was calculated by comparing treated and control samples. IC50 's were calculated graphically from dose-response curves. Average values and standard errors were calculated using the IC50 's of the individual experiments. Statistical analyses were done by an unequal variance, unpaired Student's t-test [Minitab Reference Manual, Minitab Inc., State College, Pa. (1988)]. Statistical significance was assumed when p<0.05 was found.
(§1) (NT in the following table indicates not tested.)

[2] = system: Dog platelet aggregation (platelet-rich plasma); test: In-Vitro Platelet Aggregation in PRP (Dog), collagen-induced; format: cell-based; conditions: Canis lupus familiaris, Platelet, collagen-induced aggregation (33 μg/ml final), 37° C.
Method: In-Vitro Platelet Aggregation in PRP--(Dog)
Healthy male or female dogs were fasted for 8 hours prior to drawing blood; then 60 ml whole blood was collected using a butterfly needle and 30 cc plastic syringe with 6 ml of 0.129M buffered sodium citrate (3.8%) (drawn from a minimum of 3 dogs and blood was pooled). The syringe was rotated carefully as blood was drawn to mix the citrate. Platelet-rich plasma (PRP) was prepared by centrifugation at 975×g for 3.17 minutes at room temperature, allowing the centrifuge to coast to a stop without braking. The PRP was removed from the blood with a plastic pipette and placed in a plastic capped 50 ml Corning conical sterile centrifuge tube which was held at room temperature. Platelet poor plasma (PPP) was prepared by centrifuging the remaining blood at 2000×g for 15 minutes at room temperature allowing the centrifuge to coast to a stop without braking. The platelet count in the PRP was routinely 2-4×10^8 platelets per ml. 400 μl of the PRP preparation and 50 μl of the compound to be tested or saline were preincubated for 2 minutes at 37° C. in a BioData aggregometer (BioData, Horsham, Pa.). 50 μl of collagen (diluted 1:3 with 5% dextrose and water solution, 33 μg/ml final concentration, equine tendon, Chronolog, Havertown, Pa.) was added to the cuvettes and the aggregation was monitored for 3 minutes. All compounds are tested in duplicate.
Results are calculated as follows:
Percent of control=[(maximal OD minus initial OD of compound) divided by (maximal OD minus initial OD of control saline)]×100. The % inhibition=100-(percent of control).
as §1

| Structure (SMILES) | IC50 [1] [nM] | IC50 [2] [nM] |
| --- | --- | --- |
| N=C(N)c1ccc(N2CCC(CC(=O)NC(CC(=O)O)c3ccccc3)C2=O)cc1 (centres unmarked) [Example 12, 3-[[[1-[4-(aminoiminomethyl)phenyl]-2-oxo-3-pyrrolidinyl]acetyl]amino]-3-phenylpropionic acid] | 290 | 390 |
| N=C(N)c1ccc(N2CCC(CC(=O)NC[C@H](NC(=O)OCc3ccccc3)C(=O)O)C2=O)cc1 (stereo partly drawn) [Example 16, 3-[[[1-[4-(aminoiminomethyl)phenyl]-2-oxo-3-pyrrolidinyl]acetyl]amino]-N-[(phenylmethoxy)carbonyl]-L-alanine] | 310 | 100 |
| C=C[C@H](CC(=O)O)NC(=O)NC1CCN(c2ccc(C(=N)N)cc2)C1=O (stereo partly drawn) [Example 18, 3(S)-[[[[1-[4-(aminoiminomethyl]phenyl]-2-oxo-3-pyrrolidinyl]amino]carbonyl]amino]-4-pentenoic acid] | 100 | 170 |
| C[C@@H](CCCC1CCN(c2ccc(C(=N)N)cc2)C1=O)CC(=O)O (some centres unmarked) [Example 19, 1-[4-(aminoiminomethyl)phenyl]-βS-methyl-2-oxo-3-pyrrolidinehexanoic acid, monohydrochloride.] | 90 | 150 |
| N=C(N)c1ccc(N2CCCC(CC(=O)NC(C#Cc3ccccc3)CC(=O)O)C2=O)cc1 (centres unmarked) [Example 28, 3-[[[1-[4-(aminoiminomethyl)phenyl]-2-oxo-3-piperidinyl]acetyl]amino]-5-phenyl-4-pentynoic acid.] | 190 | 170 |
| CC(CC(=O)O)NC(=O)CC1CCCN(c2ccc(C(=N)N)cc2)C1=O (centres unmarked) [Example 30, 3-[[[1-[4-(aminoiminomethyl)phenyl]-2-oxo-3-piperidinyl]acetyl]amino]-butanoic acid] | 280 | 380 |
| N=C(N)c1ccc(N2CCCC(CC(=O)NC(CC(=O)O)c3ccccc3)C2=O)cc1 (centres unmarked) [Example 32, 3-[[[1-[4-(aminoiminomethyl)phenyl]-2-oxo-3-piperidinyl]acetyl]amino]-3-phenylpropanoic acid] | 160 | 250 |
